According to patent US6900221B1, “Stable polymorph on N-(3-ethynylphenyl)-6, 7-bis (2methoxyethoxy)-4-quinazolinamine hydrochloride, methods of production, and pharmaceutical uses thereof” (OSI Pharmaceuticals, Inc., priority 1999, dated 2005):
One block for each molecule: values may come before it.

Key:
[1] = Thermodynamic stability of the polymorphic forms; format: physicochemical; conditions: hydrochloride polymorph forms compared
[2] = Solubility in aqueous compositions; format: physicochemical; conditions: compared with the hydrochloride compound
[3] = tested on: refractory ovarian cancer; assay: Phase II single agent study in refractory ovarian cancer; format: in vivo, human; conditions: 150 mg daily, preliminary results
Source text: Evidence of anti-tumor activity can also be seen in the patients with ovarian cancer in the on-going Phase II study.

[4] = tested on: advanced head and neck cancer; assay: Phase II single agent study in advanced head and neck cancer; conditions: 150 mg daily
[5] = tested on: refractory non-small cell lung cancer (NSCLC); conditions: 150 mg daily, first 19 evaluable patients
Source text: Qualification criteria for the open label, single agent study required the patients to have failed platinum-based chemotherapy and to have tumors that are histopathologically confirmed to be EGFR positive. The primary endpoint in the study is response rate with stable disease and time-to-progression amongst the secondary end-points.

[6] = tested on: cancer patients with multiple tumor types; assay: Phase I clinical studies, preliminary evidence of effectiveness in cancer patients; format: in vivo, human; conditions: one Phase I study of 28 patients
[7] = Phase I clinical studies, safety; format: in vivo, human
Experimental: […]. […] In a daily dosing regimen study the dose limiting toxicity at 200 mg/day was diarrhea. This observed side effect was effectively controlled at the 150 mg daily dose level using Loperamide (Imodium®). […] The rash has a unique histopathology of PMN infiltration with mild epidermal hyperproliferation. It is not consistent with drug hypersensitivity nor does it appear to be a “named” dermatological condition. This rash has not been a significant impediment to patients staying on the Phase II trials. […]. […] For example, in one Phase I study of 28 patients, 8 patients remain alive over a year after inception of treatment and 12 patients remained alive from 9-22 months.

[8] = advanced head and neck cancer, preliminary results

thermodynamic stability [1]: partially reduced stability
SMILES: C#Cc1cccc(Nc2ncnc3cc(OCCOC)c(OCCOC)cc23)c1.Cl [hydrochloride compound, [6,7-bis(2-methoxyethoxy)-quinazolin-4-yl]-(3-ethynylphenyl)amine hydrochloride, reference compound]

solubility in aqueous compositions [2]: more soluble
SMILES: C#Cc1cccc(Nc2ncnc3cc(OCCOC)c(OCCOC)cc23)c1 [mesylate compounds, N-(3-ethynylphenyl)-6,7-bis(2-methoxyethoxy)-4-quinazolinamine]

thermodynamic stability [1]: thermodynamically less stable
SMILES: C#Cc1cccc(Nc2ncnc3cc(OCCOC)c(OCCOC)cc23)c1.Cl [polymorph A, N-(3-ethynylphenyl)-6,7-bis(2-methoxyethoxy)-4-quinazolinamine hydrochloride]

patients reporting acneiform rash ([4]; first group of patients in the head and neck cancer study): approximately 70%
thermodynamic stability [1]: thermodynamically most stable
SMILES: C#Cc1cccc(Nc2ncnc3cc(OCCOC)c(OCCOC)cc23)c1.Cl [polymorph B, N-(3-ethynylphenyl)-6,7-bis(2-methoxyethoxy)-4-quinazolinamine hydrochloride]
patients with objective partial responses [3]: 2 patients
patients with stabilization of disease status [3]: 4 patients
patients with objective partial responses [4, 8]: 3 patients
patients with stabilization of disease status [4, 8]: 9 patients
patients with objective partial responses [5]: 5 patients
patients with stabilization of disease status [5]: 4 patients
patients alive over a year after inception of treatment [6]: 8 patients
patients remained alive from 9-22 months [6]: 12 patients
most significant toxicity ([7]; 150 mg daily): monomorphic acneiform rash
severity of adverse events ([7]; Phase I, volunteers and cancer patients, dose of 150 mg/day): no adverse events that were greater than moderate in severity
dose limiting toxicity ([7]; daily dosing regimen study, 200 mg/day): diarrhea
safety profile ([7]; total of 290 patients in Phase I and ongoing Phase II studies): well tolerated safety profile
